B1: OVA: Ovalbumin antigen, Wako Pure Chemical Industries (protein, UniProt P01012 2-386, looked up)
Ovalbumin: GSIGAASMEFCFDVFKELKVHHANENIFYCPIAIMSALAMVYLGAKDSTRTQINKVVRFDKLPGFGDSIEAQCGTSVNVHSSLRDILNQITKPNDVYSFSLASRLYAEERYPILPEYLQCVKELYRGGLEPINFQTAADQARELINSWVESQTNGIIRNVLQPSSVDSQTAMVLVNAIVFKGLWEKAFKDEDTQAMPFRVTEQESKPVQMMYQIGLFRVASMASEKMKILELPFASGTMSMLVLLPDEVSGLEQLESIINFEKLTEWTSSNVMEERKIKVYLPRMKMEEKYNLTSVLMAMGITDVFSSSANLSGISSAESLKISQAVHAAHAEINEAGREVVGSAEAGVDAASVSEEFRADHPFLFCIKHIATNAVLFFGRCVSP

What was measured:
female BALB/c mice [1] = test: Example 4: blood IgG value (IgG ELISA kit) after three intradermal administrations; format: in vivo; conditions: in combination with any antigen protein (albumin, casein, lysozyme, papain); day 21
Procedure: (§1) Five-week-old female BALB/c mice (supplied by Charles River) were divided into administration groups of 2 mice and an untreated group of 3 mice. 100 μL of each test sample described in Table 5 was intradermally administered to mice of corresponding groups on days 0, 7, and 14 of the administration. […] The collected blood was incubated at 25° C. for 30 minutes and then preserved overnight at 4° C. to assemble a blood clot, centrifugation was performed at 1,000 to 1,200 × g at 4° C. for 20 minutes, and a supernatant was collected. The blood IgG value of the collected serum was measured using an IgG ELISA kit. The serum was diluted 200,000 times with a dilution buffer attached to the kit. In addition, the back skin including the administration site of the third test sample was collected after collecting blood to prepare a tissue specimen.
The method for preparing the above-described test sample is as follows. That is, an antigen solution was prepared by dissolving an antigen protein in water, and the antigen solution and a 1.5 w/v % peptide composition (peptide compositions A to D described in Table 1) or PuraMatrix™ (which is manufactured by Corning Japan Ltd. and is a self-assembling peptide composition containing 1.0 w/v % of Ac-[…]-CONH2 (SEQ ID No: 18)) were mixed with each other so that the self-assembling peptide concentration became 0.75 w/v % and the antigen protein concentration became 0.25 mg/mL (=0.025 w/v %) to prepare a test sample. In addition, a sample obtained by mixing the above-described antigen solution with physiological saline so that the antigen protein concentration became 0.25 mg/mL was used as a control sample.

female BALB/c mice [2] = test: Example 4: tissue specimen of back skin including administration site; format: in vivo; conditions: 7 days after the administration, intradermal
Procedure: as §1
The method for preparing the above-described test sample is as follows. […]

[3] = antigen protein; cited from earlier work

Molecule | immunogenicity (blood IgG) (female BALB/c mice [1]) | remaining of test sample inside the skin (female BALB/c mice [2]) | Isoelectric point [3]
Ac-RLDLRLALRLDLR-NH2 [SEQ ID No: 1] | enhanced | the test sample remained inside the skin | 
Ac-RLDLRLSLRLDLR-NH2 [SEQ ID No: 15] | enhanced | the test sample remained inside the skin | 
SEQ ID No: 16 (RLDLRLNLRLDLR; self-assembling peptide) | enhanced |  | 
B1 |  |  | OVA: Ovalbumin (isoelectric point: 4.5, manufactured by Wako Pure Chemical Industries, Ltd., Cat. No.

Reference: patent US11472841B2, “Immunogenic composition” (MENICON CO., LTD., priority 2018, dated 2022)
